The text below walks through data of patent publication US8835440B2, “Cyclic pyrimidin-4-carboxamides as CCR2 receptor antagonists for treatment of inflammation, asthma and COPD” (Boehringer Ingelheim International GmbH, priority 2008, dated 2014).

What is called Ki is a measure of affinity in units of concentration, obtained from inhibition or displacement.

In this experiment the target is T1, CCR2 (Homo sapiens, UniProt P41597).
T1 construct: Membranes were prepared from THP-1 cells; endogenous in cells; host or cells: THP-1 cells (membrane preparation)
T1 sequence (P41597 1-360 isoform P41597-2): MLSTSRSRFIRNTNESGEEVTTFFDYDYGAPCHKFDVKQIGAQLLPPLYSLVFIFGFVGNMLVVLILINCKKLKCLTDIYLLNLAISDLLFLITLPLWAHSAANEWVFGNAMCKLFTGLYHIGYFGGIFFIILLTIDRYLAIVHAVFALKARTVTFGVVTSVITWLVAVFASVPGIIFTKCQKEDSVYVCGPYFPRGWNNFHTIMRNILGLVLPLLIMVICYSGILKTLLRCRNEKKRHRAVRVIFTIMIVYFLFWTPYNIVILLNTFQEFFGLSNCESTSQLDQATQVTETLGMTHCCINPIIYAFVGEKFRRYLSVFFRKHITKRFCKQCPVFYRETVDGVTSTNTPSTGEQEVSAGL
Kind of experiment: CCR2 receptor membrane binding assay ([125I]MCP-1, THP-1 cell membranes, SPA beads). Conditions: for remaining activity at 10 µM: @ 10 μM test compound, THP-1 membranes, read-out: CCR2 % ctrl @ 10 μM; for Ki: dissociation constant hKi, [125I]MCP-1 binding to THP-1 membranes. The method in brief:
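Human THP-1 monocytic cell membranes, pre-coupled to WGA-PVT SPA beads, were incubated with compound and [125I]MCP-1 (ca. 25000 cpm) in 25 mM HEPES pH 7.2, 5 mM MgCl2, 0.5 mM CaCl2, 0.2% BSA, at 1% DMSO final. Bound radioactivity was counted after 8 h, and Ki was obtained by iterative mass-action fitting.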

On to `Cc1c(NCc2ccc(C(C)C)cc2)ncnc1C(=O)N1CCC(N2CCC(N(C)S(C)(=O)=O)CC2)CC1` [Example 64], for which the remaining activity at 10 µM was found to be 8% and the Ki came to 65 nM. In the same order, the values of `Cc1c(NC[C@@H]2CCC[C@H](c3ccccc3)C2)ncnc1C(=O)N1CCC(N2CCC(N(C)S(C)(=O)=O)CC2)CC1` [Example 151] are 7% and 14 nM. For `Cc1c(NCCc2ccc(Cl)c(Cl)c2)ncnc1C(=O)N1CCC(N2CCC(C(N)=O)CC2)CC1` [Example 172], the remaining activity at 10 µM is 28% and affinity was put at a Ki of 736 nM. For `Cc1c(NCC2Cc3ccccc3O2)ncnc1C(=O)N1CCC(N2CCC(N(C)S(C)(=O)=O)CC2)CC1` (stereo not drawn) [Example 159qb], the affinity, expressed as Ki, was 69 nM. On the same count and under the same terms, the value for `CNC(=O)C1CCN(C2CCN(C(=O)c3ncnc(NCC4CCCC(c5ccc(Cl)cc5)C4)c3C)CC2)CC1` (stereo not drawn) [Example 159ea] was 7 nM; that for `COC1COCCC1N(C)C1CCN(C(=O)c2ncnc(NC[C@H]3CCC[C@@H](c4ccccc4)C3)c2C)CC1` (stereo partly drawn) [Example 275dj] was 4 nM. As to `Cc1c(NCc2ccc(Cl)c(F)c2)ncnc1C(=O)N1CCC(N2CCC(N(C)S(C)(=O)=O)CC2)CC1` [Example 63], the remaining activity at 10 µM is 7% and the inhibition constant Ki came to 54 nM. In the case of `Cc1c(NCC2CCCC(c3cccc(F)c3)C2)ncnc1C(=O)N1CCC(N2CCC(N(C)S(C)(=O)=O)CC2)CC1` (stereo not drawn) [Example 159db], the inhibition constant Ki is 16 nM. As for `COc1ccc(CCNc2ncnc(C(=O)N3CCC(N4CCCCC4)CC3)c2C)cc1Cl` [Example 136], the remaining activity at 10 µM is 14% and affinity was put at a Ki of 773 nM.

Consider `Cc1c(NCc2ccc(C(C)(C)C)cc2)ncnc1C(=O)N1CCC(N2CCC[C@@H]2CC(=O)N(C)C)CC1` [Example 216], for which the remaining activity at 10 µM worked out at 59% and the inhibition constant Ki was determined as 4280 nM. Taken in the same sequence, the figures for `Cc1c(NCC2COc3ccccc3C2)ncnc1C(=O)N1CCC(N2CCC(N(C)S(C)(=O)=O)CC2)CC1` (stereo not drawn) [Example 57] were 10% and 93 nM.

As to `Cc1c(NCCc2ccc(C(C)C)cc2)ncnc1C(=O)N1CCC(N2CCC(O)CC2)CC1` [Example 106], the remaining activity at 10 µM came out at 13% and the affinity corresponds to a Ki of 405 nM. Turning to `Cc1c(NCc2cc(F)cc(C(F)(F)F)c2)ncnc1C(=O)N1CCC(N2CCC(O)CC2)CC1` [Example 6], the remaining activity at 10 µM turned out to be 41% and the inhibition constant (Ki) was found to be 1930 nM. In the same order, the values of `CCc1c(NCCc2ccc(Cl)c(Cl)c2)ncnc1C(=O)N1CCC(N2CCOCC2)CC1` [Example 281] are 24% and 1010 nM. Turning to `Cc1c(NC2CCCCC2)ncnc1C(=O)N1CCC(N2CCC(O)CC2)CC1` [Example 28], the remaining activity at 10 µM was 58% and the affinity corresponds to a Ki of 4180 nM.

On to `Cc1c(NCc2ccc(C(C)(C)C)cc2)ncnc1C(=O)N1CCC(N(C)C2CC(C)OC(C)C2)CC1` (stereo not drawn) [Example 275c], for which the remaining activity at 10 µM is 38% and the affinity, expressed as Ki, was 2930 nM. In the same order, the values of `Cc1c(NCc2ccc(C(C)(C)C)cc2)ncnc1C(=O)N1CCC(N2CCC(N(C)S(C)(=O)=O)CC2)CC1` [Example 1] are 1% and 32 nM. For the compound `Cc1ccc([C@H]2CC[C@@H](CNc3ncnc(C(=O)N4CCC(N5CCC(N(C)S(C)(=O)=O)CC5)CC4)c3C)O2)cc1` [Example 159jb], the affinity, expressed as Ki, was 39 nM. As to `Cc1c(NCC2CCC(c3ccc(F)cc3)C2)ncnc1C(=O)N1CCC(N2CCC(N(C)S(C)(=O)=O)CC2)CC1` (stereo not drawn) [Example 159q], the inhibition constant (Ki) stood at 10 nM. As to `Cc1c(NCc2ccc(C(C)(C)C)cc2)ncnc1C(=O)N1CCC(N2CCC(C(C)(C)C)CC2)CC1` [Example 200], the remaining activity at 10 µM stood at 5% and the inhibition constant (Ki) is 108 nM.

For the compound `Cc1c(NCc2ccc(-c3ccccc3)cc2)ncnc1C(=O)N1CCC(N2CCC(O)CC2)CC1` [Example 101], the remaining activity at 10 µM was found to be 35% and the Ki came out at 986 nM.
